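Each compound was tested at five concentrations against cells in 96-well plates for 48 hours. TGI denotes the concentration required for complete inhibition of growth.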 Where a SMILES comes first, the peptide text is derived from it. The star is where a group is joined. Ethyl(2-NMe3+) = C[N+](C)(C)CC*; Boc = CC(C)(C)OC(=O)*
What was measured:
Experiment in all cases: NCI-60 cell line screen, 48 h
[1] = tested on: SK-MEL-5 melanoma
[2] = tested on: TK-10 renal
[3] = tested on: HL-60(TB) leukemia
[4] = tested on: RXF 393 renal
[5] = tested on: NCI-H522 lung
[6] = tested on: HOP-92 NSCLC
[7] = tested on: MCF7 breast
[8] = tested on: A498 renal
[9] = tested on: SF-268 CNS
[10] = tested on: UO-31 renal
[11] = tested on: SNB-75 CNS
[12] = tested on: ACHN renal
[13] = tested on: HS 578T breast
[14] = tested on: BT-549 breast
[15] = tested on: OVCAR-8 ovarian

Compound	TGI [1] [µM]	TGI [2] [µM]	TGI [3] [µM]	TGI [4] [µM]	TGI [5] [µM]	TGI [6] [µM]	TGI [7] [µM]	TGI [8] [µM]	TGI [9] [µM]	TGI [10] [µM]	TGI [11] [µM]	TGI [12] [µM]	TGI [13] [µM]	TGI [14] [µM]	TGI [15] [µM]
Cc1c(F)c(N)c2c(=O)cc(-c3ccc(N)c(F)c3)oc2c1F	67	6.72	> 100	41.6	30.3	63.8	4.39	8.74	76.7	60.1	56.2	50.4	> 95	36.8	58.7
O=C(NNCc1ccco1)c1cc2ccccc2[nH]1	> 100	> 100	96.9	> 100	> 100	> 96.4	> 46.3	> 100	> 100	> 100	> 100	> 100	> 100	> 90.5	> 86.5
O=C1C=CC2(O)OCCN(CCO)C2=C1 (stereo unspecified) (tested in a mixture with another compound)	> 100	> 100	> 100	> 100	> 100	> 100	> 100	> 100	> 100	> 100	> 100	> 100	> 100	> 100	> 100
COC(=O)c1c2c(cc3c1CC1(Cc4ccc(C(C)=O)cc4C1)C3)CCC2 (stereo unspecified)	45.4	> 100	> 100	80	> 100	> 100	> 100	> 100	> 100	> 100	> 100	> 100	80.7	> 100	> 100
Nc1ccc(S(=O)(=O)Nc2ccc(Nc3c4ccccc4nc4ccccc34)cc2)cc1	2	9.55	0.183	13.7	3.95	4.84	16	1.14	13.8	4.24	0.963	0.149	54.7	0.981	10
COc1cc(/C=C2\C(=O)N(c3ccccc3Cl)C(c3ccccc3)S2(=O)=O)cc(OC)c1OC (stereo unspecified)	45.5	> 100	> 100	76.7	46.5	> 100	> 100	> 100	> 100	> 100		> 100	> 100	> 100	> 100
CC1(c2cccc(Cl)c2)CC(c2cccc(Cl)c2)=C(C#N)C(=C(C#N)C#N)N1 (stereo unspecified)	28.6	31.8	46.2	29.3		21.4	51.6	39.3	20.1	29.3	34.3	31.9	34.1	51.2	42.6
N#Cc1cc(-c2nc3c(F)cccc3s2)ccc1N	> 100	> 100	> 100	> 100	> 100	> 100	4.06	> 100	> 100	> 100	> 100	> 100	> 100	> 100	> 100
Cc1cc2sc(C)[n+](CCCOS(=O)(=O)[O-])c2cc1C	> 100	> 100	> 100	> 100	> 100	> 100	> 100	> 100	> 100	> 100	> 100	> 100	> 100	> 100	> 100
Cc1ccc(C)n1-c1ccccc1C1C=CN(C(=O)OC(C)(C)C)C=C1	> 100	> 100	> 100	60.4	36.2	> 100	32.6	> 100	> 100	> 100	56.6	> 100	> 100	> 100	> 100
C=CCN1C(=O)/C(=C/c2ccc(C)cc2)NC1=S	> 100	> 100	48.9	> 100	> 100	> 100	> 100	> 100	> 100	> 100	> 100	> 100	> 100	> 100	> 100
Cn1c(Cl)cn2c3nc4ccccc4nc3c(=O)c(C#N)c12	> 100	> 100	> 100	> 100	> 100	> 100	> 100	98.8	> 100	> 100	> 81.5	> 100	> 100	> 100	> 100
CCOc1cc2c(cc1O)CC[C@@H]1[C@@H]2CC[C@]2(C)C(N)CC[C@@H]12 (stereo partly specified)	16.7	15	> 25.1	7.33	11.9	27	28.1	18.7	23.8	16.2	6.48	26.2	23.2	30.8	11.2
COc1ccc(N2C(=O)C(C)SC2c2cc3cc(Br)ccc3nc2Cl)cc1 (stereo unspecified)	> 100	91.4	74.7	93.6	78.6	82.9	> 100	> 100	> 100	> 100	> 100	> 100	> 100	99.7	> 100
Nc1nc2n[nH]nc2c(=O)[nH]1	13.8	12.7	16.5	2.95	40.9	38.5	> 100	32.8	> 100	29.3	> 66.8	> 59.7	20.4	37.8	> 100
CC(C)(C)c1ccc(-n2c3nc(=O)n(-c4ccccc4CO)c(=O)c-3cc3ccccc32)cc1	> 100	> 100	56.1	55.2	> 100	97.7	> 100	> 100	> 100	> 100	> 100	> 100	> 100	> 100	> 100
Oc1ccc(Cc2nccc3cc(O)c(O)cc23)cc1O	> 100	> 100	> 100	> 100	> 100	> 100	49.6	> 100	> 100	> 100	> 100	> 100	> 100	> 100	> 100
Cc1cc2nc(N3C(=O)/C(=C/c4ccccc4S)N=C3c3ccccc3)sc2cc1C	> 100	> 100	82	94.4		82.8	> 100	55.1	> 100	> 100	> 100	> 100	> 100	> 100	> 100
CC1=C(C)C1[N+](=O)[O-]	> 100	> 100	> 100	> 100	> 100	> 100	> 100	> 100	> 100	> 100	> 100	> 100	> 100	> 100	> 100
O=C(Cc1ccc(Cl)cc1)Nc1ccc2oc(-c3ccccc3)nc2c1	> 100	> 100	> 100	> 100	> 100	> 100	> 100	> 100	> 100		72.1	> 100	> 100	> 100	> 100
CC1=NN(C(=O)CC(=O)Nc2ccc(C)cc2)C(=O)C1N=Nc1ccc(S(=O)(=O)c2ccc(N=NC3C(=O)N(C(=O)CC(=O)Nc4ccc(C)cc4)N=C3C)cc2)cc1 (stereo unspecified)	> 100	> 100	> 100	> 100	> 100	> 100	> 100	> 100	> 100	> 100	> 100	> 100	> 100	> 100	> 100
O=P1(c2ccccc2)C(c2ccccc2)=CC=C1c1ccccc1	28.4	60.1	9.31	> 100	65.2	51.1	66.6	> 100	> 100	> 100	60.1	> 100	> 100	> 100	43.4
CC(C)(C)OC(=O)NC(CCC(=O)OCc1ccccc1)C(=O)NCCCO (stereo unspecified)	> 100	> 100	> 100	> 100	> 100	> 100	> 100	> 100	> 100	> 100	> 100	> 100	> 100	> 100	> 100
CC(NC(=O)C(Cc1ccc(OCC[N+](C)(C)C)cc1)NC(=O)OC(C)(C)C)C(=O)NC(Cc1ccccc1)C(=O)NCC(N)=O (stereo unspecified) (Boc-Y(Ethyl(2-NMe3+))AFG-NH2; configuration not given here)	> 100	24	> 100	24	> 100	29.6	> 100	33.3	25.7	> 100	30.3	> 100	83	45.8	55.3
CC1=C(C(=O)N(C(C)C)C(C)C)CC(C(=O)N(C(C)C)C(C)C)=C(C)N1	> 100	> 100	> 100	> 100	> 100	> 100	> 100	> 100	> 100	> 100	> 100	> 100	> 100	> 100	> 100
O=[N+]([O-])c1cc2c(c([N+](=O)[O-])c1)NCc1ccccc1O2	> 100	> 100	> 100	> 100	> 100	> 100	> 100	> 100	> 100	> 100	48.2	> 100	> 100	> 100	> 100
CC1(C)C/C(=N/O)c2c(nc3ccc4ccccc4c3c2-c2ccc(Cl)cc2)C1	> 100	33.9	26.1	39.4	28.6	42.2	24.1	39.6	30.1	43.5	35.7	19.4	76.2	30.9	25

Source: PubChem BioAssay (NCI)
